Assay results: US11987586B1 (TAKEDA PHARMACEUTICAL COMPANY LIMITED, priority 2022, dated 2024)

Biological target: T1, human OX2 receptor (Homo sapiens, UniProt O43614)
T1 construct: expressed in transfected cells
T1 sequence (O43614 1-444): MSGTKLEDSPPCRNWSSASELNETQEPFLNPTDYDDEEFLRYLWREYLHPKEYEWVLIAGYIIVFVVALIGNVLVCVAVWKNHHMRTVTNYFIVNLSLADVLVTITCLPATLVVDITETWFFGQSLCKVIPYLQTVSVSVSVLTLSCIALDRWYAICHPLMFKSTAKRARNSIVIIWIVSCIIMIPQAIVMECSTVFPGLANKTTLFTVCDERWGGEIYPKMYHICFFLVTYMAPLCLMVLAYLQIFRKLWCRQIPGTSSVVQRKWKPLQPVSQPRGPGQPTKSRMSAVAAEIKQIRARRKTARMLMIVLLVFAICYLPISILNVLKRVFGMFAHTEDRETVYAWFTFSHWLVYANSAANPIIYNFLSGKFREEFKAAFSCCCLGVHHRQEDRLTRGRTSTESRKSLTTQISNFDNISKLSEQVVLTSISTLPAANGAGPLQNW
Assay: Measurement of orexin type 2 receptor agonist activity (calcium fluorescence, Fluo-4, FDSS)
Type: cell-based
Settings: 3 uM test compound; CHO cells expressing human OX2 receptor; DMSO = 0%, 10 nM orexin A (human) = 100%
How it was run: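 Agonist activity (%) was normalised to the response to 10 nM final human orexin A (100%) and to the DMSO vehicle (0%). The response was measured as the Fluo-4 calcium signal, read kinetically over 1 min 40 s after compound addition to Fluo-4/probenecid-loaded stable CHO-K1 clones expressing human OX2 (aa 1-444).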

Structure (SMILES)	OX2R agonist activity (3 uM, %) [%]
O=C1N(c2noc3cccc(-c4c(F)cccc4F)c23)CC[C@H]2N1C[C@@H](NS(=O)(=O)CF)C2(F)F [Example 284, N-{(4aR,6R)-2-[4-(2,6-difluorophenyl)-1,2-benzoxazol-3-yl]-5,5-difluoro-1-oxooctahydropyrrolo[1,2-c]pyrimidin-6-yl}-1-fluoromethanesulfonamide]	109
O=C1N(c2noc3cccc(-c4c(F)cccc4F)c23)CC[C@H]2N1C[C@@H](NS(=O)(=O)C1CC1)C2(F)F [Example 285, N-{(4aR,6R)-2-[4-(2,6-difluorophenyl)-1,2-benzoxazol-3-yl]-5,5-difluoro-1-oxooctahydropyrrolo[1,2-c]pyrimidin-6-yl}cyclopropanesulfonamide]	105
Cc1cc2onc(-n3cc4n(c3=O)C[C@@H](NS(=O)(=O)N(C)C)C4(F)F)c2c(-c2c(F)cccc2F)n1 [Example 286, N′-{(6R)-2-[4-(2,6-difluorophenyl)-6-methyl[1,2]oxazolo[4,5-c]pyridin-3-yl]-7,7-difluoro-3-oxo-2,5,6,7-tetrahydro-3H-pyrrolo[1,2-c]imidazol-6-yl}-N,N-dimethylsulfuric diamide]	105
O=C1N(c2noc3cc(F)cc(-c4c(F)cccc4F)c23)C[C@H]2N1C[C@@H](NS(=O)(=O)CF)C2(F)F [Example 287, N-{(6R,7aR)-2-[4-(2,6-difluorophenyl)-6-fluoro-1,2-benzoxazol-3-yl]-7,7-difluoro-3-oxohexahydro-1H-pyrrolo[1,2-c]imidazol-6-yl}-1-fluoromethanesulfonamide]	101
O=c1n(-c2noc3cc(F)cc(-c4c(F)cc(F)cc4F)c23)cc2n1C[C@@H](NS(=O)(=O)CF)C2(F)F [Example 288, N-{(6R)-7,7-difluoro-2-[6-fluoro-4-(2,4,6-trifluorophenyl)-1,2-benzoxazol-3-yl]-3-oxo-2,5,6,7-tetrahydro-3H-pyrrolo[1,2-c]imidazol-6-yl}-1-fluoromethanesulfonamide]	101
CS(=O)(=O)N[C@@H]1CN2C(=O)N(c3noc4cccc(-c5ccc(F)cc5F)c34)CC[C@@H]2C1(F)F [Example 290, N-{(4aR,6R)-2-[4-(2,4-difluorophenyl)-1,2-benzoxazol-3-yl]-5,5-difluoro-1-oxooctahydropyrrolo[1,2-c]pyrimidin-6-yl}methanesulfonamide]	106
CS(=O)(=O)N[C@@H]1CN2C(=O)N(c3noc4cccc(-c5ccccc5Cl)c34)CC[C@@H]2C1(F)F [Example 291, N-{(4aR,6R)-2-[4-(2-chlorophenyl)-1,2-benzoxazol-3-yl]-5,5-difluoro-1-oxooctahydropyrrolo[1,2-c]pyrimidin-6-yl}methanesulfonamide]	106
CS(=O)(=O)N[C@@H]1CN2C(=O)N(c3noc4cccc(-c5cc(F)ccc5F)c34)CC[C@@H]2C1(F)F [Example 292, N-{(4aR,6R)-2-[4-(2,5-difluorophenyl)-1,2-benzoxazol-3-yl]-5,5-difluoro-1-oxooctahydropyrrolo[1,2-c]pyrimidin-6-yl}methanesulfonamide]	106
O=c1n(-c2noc3ccc(F)c(-c4c(F)cc(F)cc4F)c23)cc2n1C[C@@H](NS(=O)(=O)CF)C2(F)F [Example 293, N-{(6R)-7,7-difluoro-2-[5-fluoro-4-(2,4,6-trifluorophenyl)-1,2-benzoxazol-3-yl]-3-oxo-2,5,6,7-tetrahydro-3H-pyrrolo[1,2-c]imidazol-6-yl}-1-fluoromethanesulfonamide]	113
COc1cc(-c2c(F)cc(F)cc2F)c2c(N3CC[C@H]4N(C[C@@H](NS(C)(=O)=O)C4(F)F)C3=O)noc2n1 [Example 294, N-{(4aR,6R)-5,5-difluoro-2-[6-methoxy-4-(2,4,6-trifluorophenyl)[1,2]oxazolo[5,4-b]pyridin-3-yl]-1-oxooctahydropyrrolo[1,2-c]pyrimidin-6-yl}methanesulfonamide]	104
CS(=O)(=O)N[C@@H]1CN2C(=O)N(c3noc4cc(F)cc(-c5ncc(F)cc5F)c34)CC[C@@H]2C1(F)F [Example 295, N-{(4aR,6R)-2-[4-(3,5-difluoropyridin-2-yl)-6-fluoro-1,2-benzoxazol-3-yl]-5,5-difluoro-1-oxooctahydropyrrolo[1,2-c]pyrimidin-6-yl}methanesulfonamide]	113
CS(=O)(=O)N[C@@H]1CN2C(=O)N(c3noc4cc(OC(F)F)cc(-c5c(F)cc(F)cc5F)c34)CC[C@@H]2C1(F)F [Example 296, N-{(4aR,6R)-2-[6-(difluoromethoxy)-4-(2,4,6-trifluorophenyl)-1,2-benzoxazol-3-yl]-5,5-difluoro-1-oxooctahydropyrrolo[1,2-c]pyrimidin-6-yl}methanesulfonamide]	102
O=C1N(c2noc3cc(F)c(F)c(-c4c(F)cc(F)cc4F)c23)CC[C@H]2N1C[C@@H](NS(=O)(=O)CF)C2(F)F [Example 297, N-{(4aR,6R)-2-[5,6-difluoro-4-(2,4,6-trifluorophenyl)-1,2-benzoxazol-3-yl]-5,5-difluoro-1-oxooctahydropyrrolo[1,2-c]pyrimidin-6-yl}-1-fluoromethanesulfonamide]	107
CCS(=O)(=O)N[C@@H]1CN2C(=O)N(c3noc4cc(C(F)F)cc(-c5c(F)cc(F)cc5F)c34)C[C@@H]2C1(F)F [Example 298, N-{(6R,7aR)-2-[6-(difluoromethyl)-4-(2,4,6-trifluorophenyl)-1,2-benzoxazol-3-yl]-7,7-difluoro-3-oxohexahydro-1H-pyrrolo[1,2-c]imidazol-6-yl}ethanesulfonamide]	105
CCOc1cc(-c2c(F)cccc2F)c2c(N3CC[C@H]4N(C[C@@H](NS(=O)(=O)CC)C4(F)F)C3=O)noc2c1 [Example 299, N-{(4aR,6R)-2-[4-(2,6-difluorophenyl)-6-ethoxy-1,2-benzoxazol-3-yl]-5,5-difluoro-1-oxooctahydropyrrolo[1,2-c]pyrimidin-6-yl}ethanesulfonamide]	104
CCOc1cc(-c2c(F)cccc2F)c2c(N3CC[C@H]4N(C[C@@H](NS(=O)(=O)C5CC5)C4(F)F)C3=O)noc2c1 [Example 300, N-{(4aR,6R)-2-[4-(2,6-difluorophenyl)-6-ethoxy-1,2-benzoxazol-3-yl]-5,5-difluoro-1-oxooctahydropyrrolo[1,2-c]pyrimidin-6-yl}cyclopropanesulfonamide]	105
CNS(=O)(=O)N[C@@H]1Cn2c(cn(-c3noc4ccc(F)c(-c5c(F)cc(F)cc5F)c34)c2=O)C1(F)F [Example 301, N-{(6R)-7,7-difluoro-2-[5-fluoro-4-(2,4,6-trifluorophenyl)-1,2-benzoxazol-3-yl]-3-oxo-2,5,6,7-tetrahydro-3H-pyrrolo[1,2-c]imidazol-6-yl}-N′-methylsulfuric diamide]	98
CNS(=O)(=O)N[C@@H]1Cn2c(cn(-c3noc4cc(C)nc(-c5c(F)cccc5F)c34)c2=O)C1(F)F [Example 302, N-{(6R)-2-[4-(2,6-difluorophenyl)-6-methyl[1,2]oxazolo[4,5-c]pyridin-3-yl]-7,7-difluoro-3-oxo-2,5,6,7-tetrahydro-3H-pyrrolo[1,2-c]imidazol-6-yl}-N′-methylsulfuric diamide]	103
CCS(=O)(=O)N[C@@H]1CN2C(=O)N(c3noc4cc(OC(F)F)cc(-c5c(F)cc(F)cc5F)c34)CC[C@@H]2C1(F)F [Example 303, N-{(4aR,6R)-2-[6-(difluoromethoxy)-4-(2,4,6-trifluorophenyl)-1,2-benzoxazol-3-yl]-5,5-difluoro-1-oxooctahydropyrrolo[1,2-c]pyrimidin-6-yl}ethanesulfonamide]	103
CCS(=O)(=O)N[C@@H]1CN2C(=O)N(c3noc4cc(F)c(F)c(-c5c(F)cc(F)cc5F)c34)CC[C@@H]2C1(F)F [Example 304, N-{(4aR,6R)-2-[5,6-difluoro-4-(2,4,6-trifluorophenyl)-1,2-benzoxazol-3-yl]-5,5-difluoro-1-oxooctahydropyrrolo[1,2-c]pyrimidin-6-yl}ethanesulfonamide]	117
O=C1N(c2noc3cc(F)c(F)c(-c4c(F)cc(F)cc4F)c23)CC[C@H]2N1C[C@@H](NS(=O)(=O)C1CC1)C2(F)F [Example 305, N-{(4aR,6R)-2-[5,6-difluoro-4-(2,4,6-trifluorophenyl)-1,2-benzoxazol-3-yl]-5,5-difluoro-1-oxooctahydropyrrolo[1,2-c]pyrimidin-6-yl}cyclopropanesulfonamide]	113
O=c1n(-c2noc3cc(C(F)F)cc(-c4c(F)cccc4F)c23)cc2n1C[C@@H](NS(=O)(=O)CF)C2(F)F [Example 306, N-{(6R)-2-[6-(difluoromethyl)-4-(2,6-difluorophenyl)-1,2-benzoxazol-3-yl]-7,7-difluoro-3-oxo-2,5,6,7-tetrahydro-3H-pyrrolo[1,2-c]imidazol-6-yl}-1-fluoromethanesulfonamide]	101
